# Results reported in paper PMC10088752 (Journal of Natural Medicines, 2023).
# Biological target: BACE1 (Homo sapiens, UniProt P56817)
# Assay: BACE1 FRET assay
# Format: biochemical
# BACE1, sequence (P56817 46-501): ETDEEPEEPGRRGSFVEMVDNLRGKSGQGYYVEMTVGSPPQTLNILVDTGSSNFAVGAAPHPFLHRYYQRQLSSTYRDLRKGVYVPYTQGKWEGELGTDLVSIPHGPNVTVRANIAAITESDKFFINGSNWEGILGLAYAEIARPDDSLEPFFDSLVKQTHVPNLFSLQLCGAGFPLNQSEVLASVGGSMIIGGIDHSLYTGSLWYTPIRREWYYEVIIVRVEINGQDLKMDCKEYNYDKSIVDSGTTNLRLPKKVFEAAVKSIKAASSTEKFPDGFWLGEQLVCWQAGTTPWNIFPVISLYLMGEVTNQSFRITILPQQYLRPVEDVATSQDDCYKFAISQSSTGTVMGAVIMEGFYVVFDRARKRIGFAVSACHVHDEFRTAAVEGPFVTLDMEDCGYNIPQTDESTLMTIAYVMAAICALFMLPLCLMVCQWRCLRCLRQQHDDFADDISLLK
row,Compound,IC50
1,"COc1cc(OC)c2c(O)c3c(=O)cc(C)oc3c(-c3c(OC)cc4cc(O)c5c(=O)cc(C)oc5c4c3OC)c2c1 [Compound 4, fonsecinone A]",14.9 µM
2,"COc1cc(OC)c2c(O)c3c(=O)cc(C)oc3c(-c3c(O)cc4cc(O)c5c(=O)cc(C)oc5c4c3OC)c2c1 [Compound 7, asperpyrone A]",36.5 µM
